We go through 6 compounds from patent US9296681B2, “Cycloalkylmethylamines” (Reviva Pharmaceuticals, Inc., priority 2006, dated 2016).

For data set [1] the following is noted: active metabolites of sibutramine; cited from earlier work.
For data set [2], the target named is human recombinant norepinephrine transporter (NET) (Homo sapiens (Human), UniProt P23975). The data set can be described thus: radioligand binding assay, norepinephrine transporter. The note with it: 11 test concentrations, duplicates. On the procedure:
(§1) The monoamine transporters inhibitory activities of selected compounds cycloalkylmethylamine derivatives comprising Formula (I) are reported herein. The compounds were evaluated using well established radioligand binding assays protocols (Galli, A. et al., J. Exp. Biol. 1995, 198, 2197-2212; Giros, B. et al., Trends Pharmcol. Sci. 1993, 14, 43-49; Gu, H. et al., J. Biol. Chem. 1994, 269(10), 7124-7130; Shearman, L. P. et al, Am. J. Physiol., 1998, 275 (6 Pt 1), C1621-1629; Wolf, W. A. et al., J. Biol. Chem. 1992, 267(29), 20820-20825). The human recombinant transporter proteins dopamine (DAT), norepinephrine (NET) and serotonin (SERT) were selected for the in vitro assays. The radioligand binding assays were carried out at 11 different test concentrations […] to 1 μM.
(§2) The assays were carried out in duplicates and the quantitative data are reported as Ki in the TABLE 1.

The target of data set [3] is human recombinant dopamine transporter (DAT) (Homo sapiens (Human), UniProt Q01959). The data set can be described thus: radioligand binding assay, dopamine transporter. The following applies: 11 test concentrations, duplicates. How it is done: as §1, §2
Data set [4] deals with human recombinant serotonin transporter (SERT) (Homo sapiens (Human), UniProt P31645). As to the kind of experiment: radioligand binding assay, serotonin transporter. The following applies: 11 test concentrations, duplicates. On the procedure: as §1, §2

Chain of human recombinant norepinephrine transporter (NET) (P23975 whole entry): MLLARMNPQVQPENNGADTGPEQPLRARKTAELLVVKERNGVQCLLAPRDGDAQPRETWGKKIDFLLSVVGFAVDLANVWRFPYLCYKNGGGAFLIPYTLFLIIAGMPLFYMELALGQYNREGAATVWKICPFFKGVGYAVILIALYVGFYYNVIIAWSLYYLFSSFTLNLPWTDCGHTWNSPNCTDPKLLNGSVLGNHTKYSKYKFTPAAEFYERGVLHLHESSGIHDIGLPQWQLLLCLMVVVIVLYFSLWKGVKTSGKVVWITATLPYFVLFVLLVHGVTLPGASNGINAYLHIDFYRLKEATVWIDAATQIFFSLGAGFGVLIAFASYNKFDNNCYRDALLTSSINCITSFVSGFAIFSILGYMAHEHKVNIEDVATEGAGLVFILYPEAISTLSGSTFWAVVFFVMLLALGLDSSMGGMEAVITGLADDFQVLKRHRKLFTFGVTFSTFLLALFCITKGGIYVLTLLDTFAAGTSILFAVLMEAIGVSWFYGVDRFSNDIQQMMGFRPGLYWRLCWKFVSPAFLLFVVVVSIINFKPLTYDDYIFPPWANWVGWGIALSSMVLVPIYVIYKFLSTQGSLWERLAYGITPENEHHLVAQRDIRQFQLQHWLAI
Chain of human recombinant dopamine transporter (DAT) (Q01959 whole entry): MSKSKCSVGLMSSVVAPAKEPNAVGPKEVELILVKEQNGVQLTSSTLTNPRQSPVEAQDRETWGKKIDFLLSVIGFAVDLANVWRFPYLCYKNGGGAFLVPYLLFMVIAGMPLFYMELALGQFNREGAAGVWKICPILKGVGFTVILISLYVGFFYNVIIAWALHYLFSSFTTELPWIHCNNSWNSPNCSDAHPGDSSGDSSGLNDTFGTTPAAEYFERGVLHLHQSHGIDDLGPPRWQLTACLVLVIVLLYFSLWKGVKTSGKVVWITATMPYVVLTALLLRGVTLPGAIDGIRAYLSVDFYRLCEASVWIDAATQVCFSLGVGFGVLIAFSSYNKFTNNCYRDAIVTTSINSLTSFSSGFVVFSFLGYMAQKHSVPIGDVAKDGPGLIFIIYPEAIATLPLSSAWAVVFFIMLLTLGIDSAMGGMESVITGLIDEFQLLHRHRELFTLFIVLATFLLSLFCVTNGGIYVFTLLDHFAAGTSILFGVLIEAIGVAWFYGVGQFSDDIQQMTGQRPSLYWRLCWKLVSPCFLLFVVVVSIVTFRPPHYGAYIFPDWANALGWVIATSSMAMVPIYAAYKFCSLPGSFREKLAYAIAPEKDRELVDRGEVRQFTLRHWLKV

`CC(C)CC(N)C1(c2ccc(Cl)cc2)CCC1` (centres unmarked) [Compound M2]: the elimination half-life in data set [1] was 16 h.
As to `CC(C)C[C@@H](NCCCC(N)=O)C1(c2ccc(Cl)c(Cl)c2)CCC1` (single isomer, unassigned; isomer-1) [33a-(R)-Isomer], the Ki in data set [2] amounted to 30.3 nM; in data set [3], 0.91 nM; in data set [4] it was 2.3 nM.
For `CCOc1ccc(C2(C(CC(C)C)NCCCC(N)=O)CCC2)cc1` (racemic) [Compound 33b-Racemic], in that order: more than 10000 nM, 472 nM and 5.49 nM.
On to `CC(C)CC(NCCCC(N)=O)C1(c2ccc(Cl)c(Cl)c2)CCC1` (racemic) [Compound 33a-Racemic], for which the Ki in data set [2] turned out to be 50.1 nM; in data set [3], 1.5 nM; in data set [4], 8.1 nM.
Turning to `CNC(CC(C)C)C1(c2ccc(Cl)cc2)CCC1` (centres unmarked) [Compound M1], the elimination half-life in data set [1] is 14 h.
Consider `CC(C)C[C@H](NCCCC(N)=O)C1(c2ccc(Cl)c(Cl)c2)CCC1` (single isomer, unassigned; isomer-2) [33a-(S)-Isomer], for which the Ki stood at 3420 nM in data set [2], 126 nM in data set [3] and 300 nM in data set [4].
